Laboratory results reported in patent publication US4661516A, “Diaminocyclohexane platinum complexes” (Research Corporation, priority 1984, dated 1987).

What was measured:
[1] = tested on: Wild type L1210 leukemic cells; assay: In vitro cytotoxicity, wild type L1210 leukemic cells (L1210/0); assay type: cell-based; settings: for ID50: L1210, 72 hours incubation; for ID50 L1210/0: L1210/0, protocol of Example 14, Tables VII and VIII, 4320 min
In short: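 Cells at 10^5 cells/ml were exposed to drug at 0.01, 0.1, 1 or 10 μg/ml final. Cell counts were taken by Coulter counter after 72 h […]. Percent growth inhibition was calculated versus control cultures.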

[2] = tested on: L1210 leukemia cells (L1210/PDD); assay: In vitro cytotoxicity / cross-resistance, L1210/PDD (L1210/DDP) cells resistant to cisdiamminedichloroplatinum(II); assay type: cell-based; settings: L1210/DDP, Tables VII and VIII; 5760 min
Procedure: Four ml of cell suspension were added to culture tubes and the appropriate concentration (0.01, 0.1, 1 or 10 μg/ml final drug concentration) was added. After 96 hours the cell concentration of control and experimental cultures were calculated with the aid of a Coulter Counter® Model ZBf and the percent inhibition calculated.

[3] = tested on: L1210 cells; assay: In vivo anti-tumor activity, L1210, single i.p. injection; design: species or system BDF1 mice; settings: for Maximal Effective Dose: single i.p. injection; for % T/C: single i.p.
Procedure: About 24 hours after inoculation of the cells, the mice were injected intraperitoneally with varying dosages of complexes of the present invention. […] Long term survival signifies that animals were alive 60 days after inoculation with L1210 cells.

[4] = tested on: L1210/0 leukemia cells; assay: In vivo anti-tumor activity, L1210 (L1210/0), multiple i.p. doses; design: species or system BDF1 mice; settings: for LTS: survivors/treated 50 days after treatment; for Long Term Survivors: days 1, 5 and 9, at maximal effective dose, alive 60 days after tumor inoculation; for Maximal Effective Dose: i.p. on days 1, 5 and 9
In short: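 BDF1 mice given 10^6 L1210 cells i.p., then i.p. complex starting about 24 h later (day 1), as single dose or on days 1, 5 and 9; six mice per dose. Activity expressed as %T/C of survival time versus untreated controls; long-term survivors alive at 60 days.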

[5] = tested on: B16 cells; assay: Melanotic melanoma test, i.p. inoculated B16 melanoma; assay type: in vivo, BDF1 mice; settings: for Maximal Effective Dose: B16, i.p. days 1, 5 and 9; for % T/C / Long Term Survivors: B16, i.p. days 1, 5 and 9, at maximal effective dose; for Long Term Survivors: 60 days
Procedure: The animals used were BDF1 mice, all of the same sex, weighing a minimum of 18 g. and all within a 4 g. weight range. There were 6 animals per test group. […] The test compounds were administered intraperitoneally on days 1, 5 and 9 at various doses. The animals were weighed and survivors were recorded on a regular basis for 60 days. The median survival time and the ratio of survival time for treated (T)/control (C) animals were calculated. […] The criterion for efficacy is T/C×100≥125%.

[6] = Acute lethality, single intraperitoneal injection (Table XIII); assay type: in vivo
[7] = BUN (RUN [sic]) with the acute lethality data (Table XIII); assay type: in vivo; settings: mean + 1 S.D.
[8] = Table IX, at maximal effective dose
[9] = Tables X and XI, i.p. on days 1, 5 and 9, at maximal effective dose

Row | Compound | ID50 [1] | ID50 L1210/0 [1] | ID50 L1210/DDP [2] | Maximal Effective Dose ([3]; Table IX) | % T/C [3, 8] | Long Term Survivors ([4]; Tables X and XI) | Maximal Effective Dose ([4]; Tables X and XI) | % T/C [4, 9] | Maximal Effective Dose [5] | % T/C [5] | Long Term Survivors [5] | LD10 [6] | LD50 [6] | LD90 [6] | RUN [7] | further results
1 | NC1CCCCC1N.O=C([O-])CN(CC(=O)[O-])Cc1ccccc1.[Pt+2] [Compound 38, N--Benzyliminodiacetato(DACH)Pt(II)] | 2.3 µg/mL | 1.0 µg/mL | 0.8 µg/mL | 25 mg/kg | 170% | 2/6 | 12.5 mg/kg | 397% | 12.5 mg/kg | 207% | 1/6 | 81 mg/kg | 140 mg/kg | 210 mg/kg | 27 ± 3 mg/100 ml | % T/C ([3]; 12.5 mg/kg): 123%; % T/C ([3]; 25 mg/kg): 170%; % T/C ([3]; 50 mg/kg): 158%; % T/C ([4]; 6.25 mg/kg i.p., days 1, 5, 9, 30 day observation period): 277%; % T/C ([4]; 12.5 mg/kg i.p., days 1, 5, 9, 30 day observation period): 287%; LTS ([4]; 12.5 mg/kg, days 1, 5, 9): 1/6; % T/C ([4]; 25 mg/kg i.p., days 1, 5, 9, 30 day observation period): 240%; LTS ([4]; 25 mg/kg, days 1, 5, 9): 2/6
2 | NC1CCCCC1N.O.O.O=C([O-])CN(CCO)CC(=O)[O-].[Pt+2] [Compound 39, N--(2-Hydroxyethyl)-iminodiacetato(DACH)Pt(II).2H2 O] | 3.0 µg/mL | 0.7 µg/mL | 0.9 µg/mL | 25 mg/kg | 180% | 4/6 | 25 mg/kg | 450% | 25 mg/kg | 196% | 2/6 | 63 mg/kg | 150 mg/kg | 301 mg/kg | 18 ± 2 mg/100 ml | 
